Data taken from patent US20110224231A1, “Novel Lactams as Beta Secretase Inhibitors” (Pfizer Inc., priority 2008, published 2011).
Where a name gives a salt, the structure may show the parent alone.

Molecular target: T1, soluble human BACE (Homo sapiens, UniProt P56817)
T1 construct: cells secreting human recombinant soluble BACE; made in house; conditioned medium
Assay: BACE activity Cell Free Assay (ELISA of cleaved synthetic APP substrate)
Format: biochemical
Settings: not given

T1 sequence (P56817 46-457 limits assumed): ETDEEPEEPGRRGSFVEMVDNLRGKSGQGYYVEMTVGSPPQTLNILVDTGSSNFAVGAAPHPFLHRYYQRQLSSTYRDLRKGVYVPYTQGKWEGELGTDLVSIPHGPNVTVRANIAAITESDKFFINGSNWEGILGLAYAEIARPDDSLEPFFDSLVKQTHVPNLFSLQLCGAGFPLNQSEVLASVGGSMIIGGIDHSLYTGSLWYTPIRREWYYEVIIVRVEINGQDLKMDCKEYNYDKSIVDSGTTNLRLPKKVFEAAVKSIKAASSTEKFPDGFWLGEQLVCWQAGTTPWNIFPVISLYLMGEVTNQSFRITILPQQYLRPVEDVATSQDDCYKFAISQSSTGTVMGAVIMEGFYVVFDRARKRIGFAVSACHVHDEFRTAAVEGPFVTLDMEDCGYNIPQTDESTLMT

| SMILES | IC50 |
| --- | --- |
| Cc1cccc(N2C(=O)C=C[C@]23CCN(Cc2scnc2CC2CCC2)[C@@H](C)C3)n1 [#137, (5R,7S)-8-{[4-(cyclobutylmethyl)-1,3-thiazol-5-yl]methyl}-7-methyl-1-(6-methylpyridin-2-yl)-1,8-diazaspiro[4.5]dec-3-en-2-one] | 1000 to 10000 nM |
| CCCn1nccc1CN1CC[C@]2(C=CC(=O)N2c2cccc(C)n2)C[C@@H]1C [#138, (5R,7S)-7-methyl-1-(6-methylpyridin-2-yl)-8-[(1-propyl-1H-pyrazol-5-yl)methyl]-1,8-diazaspiro[4.5]dec-3-en-2-one] | 10000 to 100000 nM |
| Cc1cccc(N2C(=O)C=C[C@]23CCN(Cc2ccc4cnn(C(C)C)c4c2)[C@@H](C)C3)n1 [#139, (5R,7S)-8-[(1-isopropyl-1H-indazol-6-yl)methyl]-7-methyl-1-(6-methylpyridin-2-yl)-1,8-diazaspiro[4.5]dec-3-en-2-one] | 100000 to 300000 nM |
| C[C@H]1C[C@@]2(C=CC(=O)N2c2cnccn2)CCN1Cc1ccc(O)c(Cl)c1 [#140, (5R,7S)-8-(3-chloro-4-hydroxybenzyl)-7-methyl-1-pyrazin-2-yl-1,8-diazaspiro[4.5]dec-3-en-2-one, ammonium salt] | 10000 to 100000 nM |
| Cc1cccc(N2C(=O)C=C[C@]23CCN(Cc2ccc(O)c(Cl)c2)[C@@H](C)C3)n1 [#141, (5R,7S)-8-(3-chloro-4-hydroxybenzyl)-7-methyl-1-(6-methylpyridin-2-yl)-1,8-diazaspiro[4.5]dec-3-en-2-one, ammonium salt] | 1000 to 10000 nM |
| CC(C)Cc1ocnc1CN1CC[C@]2(C=CC(=O)N2c2cccc(F)c2)C[C@@H]1C [#200] | 1000 to 10000 nM |
| C[C@H]1C[C@@]2(C=CC(=O)N2c2cccc(F)c2)CCN1Cc1ccc(O)c(Cl)c1 [#201] | 1000 to 10000 nM |
| Cc1ccccc1-c1cc(CN2CC[C@]3(C=CC(=O)N3c3cccc(F)c3)C[C@@H]2C)ccc1O [#202] | 1 to 1000 nM |
| CC[C@@H](C)Oc1cccc(CN2CC[C@]3(C=CC(=O)N3c3cccc(F)c3)C[C@@H]2C)c1 [#203] | 1000 to 10000 nM |
| CC(C)C(=O)c1cc(CN2CC[C@]3(C=CC(=O)N3c3cccc(F)c3)C[C@@H]2C)ccc1O [#204] | 1000 to 10000 nM |
| CC(C)C(O)c1cc(CN2CCC3(C=CC(=O)N3c3cccc(F)c3)CC2C)ccc1O (centres unmarked) [#205] | 1 to 1000 nM |
| C[C@H]1C[C@@]2(C=CC(=O)N2c2cccc(F)c2)CCN1Cc1ccc(O)c(-c2ccccc2Cl)c1 [#206] | 1 to 1000 nM |
| C[C@H]1C[C@@]2(C=CC(=O)N2c2cccc(F)c2)CCN1Cc1ncoc1-c1ccccc1 [#207] | 10000 to 100000 nM |
| C[C@H]1C[C@@]2(C=CC(=O)N2c2cccc(F)c2)CCN1Cc1ccc(O)c(-c2ccccc2F)c1 [#208] | 1 to 1000 nM |
| Cc1ccc(F)cc1-c1cc(CN2CC[C@]3(C=CC(=O)N3c3cccc(F)c3)C[C@@H]2C)ccc1O [#209] | 1 to 1000 nM |
| C[C@H]1C[C@@]2(C=CC(=O)N2c2cccc(F)c2)CCN1Cc1scnc1CC1CC1 [#210] | 1 to 1000 nM |
| C[C@H]1C[C@@]2(C=CC(=O)N2c2cccc(F)c2)CCN1Cc1scnc1CC1CCC1 [#211] | 1 to 1000 nM |
| Cc1ccsc1-c1cc(CN2CC[C@]3(C=CC(=O)N3c3cccc(F)c3)C[C@@H]2C)ccc1O [#212] | 1 to 1000 nM |
| CC(C)Cc1ocnc1CN1CC[C@]2(CCC(=O)N2c2cccc(F)c2)C[C@@H]1C [#213] | 10000 to 100000 nM |
| C[C@H]1C[C@@]2(CCC(=O)N2c2cccc(F)c2)CCN1Cc1ccc(O)c(Cl)c1 [#214] | 1000 to 10000 nM |
| Cc1ccccc1-c1cc(CN2CC[C@]3(CCC(=O)N3c3cccc(F)c3)C[C@@H]2C)ccc1O [#215] | 1 to 1000 nM |
| CC[C@@H](C)Oc1cccc(CN2CC[C@]3(CCC(=O)N3c3cccc(F)c3)C[C@@H]2C)c1 [#216] | 1000 to 10000 nM |
| Cc1ccsc1-c1cc(CN2CC[C@]3(CCC(=O)N3c3cccc(F)c3)C[C@@H]2C)ccc1O [#217] | 1000 to 10000 nM |
| CC(C)Oc1cc(CN2CC[C@]3(C=CC(=O)N3c3cccc(F)c3)C[C@@H]2C)ccc1O [Example 87, (5R7S)-1-(3-fluorophenyl)-8-(4-hydroxy-3-isopropoxybenzyl)-7-methyl-1,8-diazaspiro[4,5]dec-3-en-2-one hydrochloride] | 1 to 1000 nM |
| Cc1ccccc1-c1cccc(CN2CC[C@]3(CCC(=O)N3c3cccc(F)c3)C[C@@H]2C)c1 [Example 88, (5R,7S)˜1˜(3˜fluorophenyl)˜7˜methyl˜8˜[(2′˜methylbiphenyl˜3˜yl)methyl]˜1,8˜diazaspiro[4.5]decan˜2˜one hydrochloride] | 1000 to 10000 nM |
| CC(C)Oc1cc(CN2CC[C@]3(CCC(=O)N3c3cccc(F)c3)C[C@@H]2C)ccc1O [Example 89, (5R,7S)˜1˜(3˜fluorophenyl)˜8˜(4˜hydroxy˜3˜isopropoxybenzyl)˜7˜methyl˜1,8˜diazaspiro[4.5]decan˜2˜one hydrochloride] | 1 to 1000 nM |
| CC(C)Oc1cccc(CN2CC[C@]3(CC(C)C(=O)N3c3cccc(F)c3)C[C@@H]2C)c1 (stereo partly drawn) [Example @96, (5R,7S)˜1˜(3˜Fluorophenyl)˜8˜(3˜isopropoxybenzyl)˜3,7˜dimethyl˜1,8˜diazaspiro[4.5]decan˜2˜one, hydrochloride salt] | 10000 to 100000 nM |
| CC(C)Oc1cc(CN2CC[C@]3(C=C(c4ccccc4)C(=O)N3c3cccc(F)c3)C[C@@H]2C)ccc1O [Example @97, (5R,7S)-1-(3-Fluorophenyl)-8-(4-hydroxy-3-isopropoxybenzyl)-7-methyl-3-phenyl-1,8-diazaspiro[4.5]dec-3-en-2-one, hydrochloride salt] | 1000 to 10000 nM |
| CC1=C[C@]2(CCN(Cc3ccc(O)c(OC(C)C)c3)[C@@H](C)C2)N(c2cccc(F)c2)C1=O [Example @98, (5R,7S)-1-(3-Fluorophenyl)-8-(4-hydroxy-3-isopropoxybenzyl)-3,7-dimethyl-1,8-diazaspiro[4.5]dec-3-en-2-one, hydrochloride salt] | 1 to 1000 nM |

Same assay, conditions: Table 6; cell free, soluble human BACE, pH 4.5, 3 μM substrate; read-out: BACE Activity (Cell Free Assay IC50)

| SMILES | IC50 |
| --- | --- |
| CC(C)Oc1cccc(CN2CC[C@]3(C=CC(=O)N3CC3CC3)C[C@@H]2C)c1 [Example @93, (5R,7S)-1-(cyclopropylmethyl)-8-(3-isopropoxybenzyl)-7-methyl-1,8-diazaspiro[4.5]dec-3-en-2-one] | 100000 to 300000 nM |
| CCCN1C(=O)C=C[C@]12CCN(Cc1cccc(OC(C)C)c1)[C@@H](C)C2 [Example @94, (5R,7S)˜8˜(3˜isopropoxybenzyl)˜7˜methyl˜1˜propyl˜1,8-diazaspiro[4.5]dec˜3˜en˜2˜one] | 100000 to 300000 nM |
| CC(C)Oc1cccc(CN2CC[C@]3(C=CC(=O)N3C3CC3)C[C@@H]2C)c1 [Example @95, (5R,7S)-1-Cyclopropyl-8-(3-isopropoxybenzyl)-7-methyl-1,8-diazaspiro[4.5]dec-3-en-2˜one, trifluoroacetate salt] | 100000 to 300000 nM |
